Laboratory results as given in paper PMC9516332 (Frontiers in Oncology, 2022).
Like-named read-outs stand apart in the source and are kept apart here.

System: 134 cancer cell lines
Assay: Cell viability assay (ATPlite, 72 hours), IC50 on cancer cell line panel

Work on C=CC(=O)N1CCC([C@@H]2CCNc3c(C(N)=O)c(-c4ccc(Oc5ccccc5)cc4)nn32)CC1 [zanubrutinib] yielded an IC50 (Homo sapiens, LNCaP-Clone-FGC, read-out: IC50 in cell proliferation assay) of 13.7 µM, an IC50 (Homo sapiens, LS174T, read-out: IC50 in cell proliferation assay) of 11.5 µM and an IC50 (Homo sapiens, LS-411N, read-out: IC50 in cell proliferation assay) of 12.4 µM. The IC50 (Homo sapiens, LoVo, read-out: IC50 in cell proliferation assay) was 24.9 µM, the IC50 (Homo sapiens, MCF7, read-out: IC50 in cell proliferation assay) was > 31.6 µM and the IC50 (Homo sapiens, MDA-MB-231, read-out: IC50 in cell proliferation assay) was > 31.6 µM. It also gave an IC50 (Homo sapiens, MDA-MB-453, read-out: IC50 in cell proliferation assay) of 4.19 µM, an IC50 (Homo sapiens, MDA-MB-468, read-out: IC50 in cell proliferation assay) of 3.9 µM and an IC50 (Homo sapiens, MG-63, read-out: IC50 in cell proliferation assay) of 29.3 µM. The IC50 (Homo sapiens, MIA PaCa-2, read-out: IC50 in cell proliferation assay) was > 31.6 µM, the IC50 (Homo sapiens, MKN-45, read-out: IC50 in cell proliferation assay) was > 31.6 µM and the IC50 (Homo sapiens, MOLM-13, read-out: IC50 in cell proliferation assay) was 2.06 µM. The IC50 (Homo sapiens, MOLT-4, read-out: IC50 in cell proliferation assay) was 16.5 µM, the IC50 (Homo sapiens, MV4-11, read-out: IC50 in cell proliferation assay) was 3.72 µM and the IC50 (Homo sapiens, MeWo, read-out: IC50 in cell proliferation assay) was > 31.6 µM. For the same compound, the IC50 (Homo sapiens, NCCIT, read-out: IC50 in cell proliferation assay) was 11.4 µM, the IC50 (Homo sapiens, NCI-H82, read-out: IC50 in cell proliferation assay) was > 31.6 µM and the IC50 (Homo sapiens, NCI-H460, read-out: IC50 in cell proliferation assay) was > 31.6 µM. For the same compound, the IC50 (Homo sapiens, NCI-H661, read-out: IC50 in cell proliferation assay) was 0.612 µM, the IC50 (Homo sapiens, NCI-H716, read-out: IC50 in cell proliferation assay) was 11.7 µM and the IC50 (Homo sapiens, NCI-H1650, read-out: IC50 in cell proliferation assay) was 13.9 µM. The IC50 (Homo sapiens, NCI-H1975, read-out: IC50 in cell proliferation assay) was 4.6 µM, the IC50 (Homo sapiens, NCI-H2228, read-out: IC50 in cell proliferation assay) was > 31.6 µM and the IC50 (Homo sapiens, OVCAR-3, read-out: IC50 in cell proliferation assay) was 1.53 µM. For the same compound, the IC50 (Homo sapiens, PFSK-1, read-out: IC50 in cell proliferation assay) was 18 µM, the IC50 (Homo sapiens, RL95-2, read-out: IC50 in cell proliferation assay) was 1.17 µM and the IC50 (Homo sapiens, RPMI-7951, read-out: IC50 in cell proliferation assay) was > 31.6 µM. The IC50 (Homo sapiens, RS4-11, read-out: IC50 in cell proliferation assay) was 26.5 µM, the IC50 (Homo sapiens, SHP77, read-out: IC50 in cell proliferation assay) was > 31.6 µM and the IC50 (Homo sapiens, SK-BR-3, read-out: IC50 in cell proliferation assay) was 0.141 µM. The IC50 (Homo sapiens, SK-N-AS, read-out: IC50 in cell proliferation assay) was 15.5 µM, the IC50 (Homo sapiens, SK-N-FI, read-out: IC50 in cell proliferation assay) was > 31.6 µM and the IC50 (Homo sapiens, SK-N-MC, read-out: IC50 in cell proliferation assay) was 23.1 µM. For the same compound, the IC50 (Homo sapiens, SK-N-SH, read-out: IC50 in cell proliferation assay) was > 31.6 µM, the IC50 (Homo sapiens, SNU-5, read-out: IC50 in cell proliferation assay) was 8.94 µM and the IC50 (Homo sapiens, SNU-16, read-out: IC50 in cell proliferation assay) was 8.54 µM. The IC50 (Homo sapiens, SNU-C2B, read-out: IC50 in cell proliferation assay) was 0.866 µM, the IC50 (Homo sapiens, SU-DHL-1, read-out: IC50 in cell proliferation assay) was 16.8 µM and the IC50 (Homo sapiens, SU-DHL-6, read-out: IC50 in cell proliferation assay) was 0.00375 µM. For the same compound, the IC50 (Homo sapiens, SUP-T1, read-out: IC50 in cell proliferation assay) was 17.5 µM, the IC50 (Homo sapiens, SW48, read-out: IC50 in cell proliferation assay) was 0.043 µM and the IC50 (Homo sapiens, SW480, read-out: IC50 in cell proliferation assay) was 9.56 µM. For the same compound, the IC50 (Homo sapiens, SW626, read-out: IC50 in cell proliferation assay) was 2.71 µM, the IC50 (Homo sapiens, SW780, read-out: IC50 in cell proliferation assay) was 5.82 µM and the IC50 (Homo sapiens, SW837, read-out: IC50 in cell proliferation assay) was 6 µM. For the same compound, the IC50 (Homo sapiens, SW872, read-out: IC50 in cell proliferation assay) was > 31.6 µM, the IC50 (Homo sapiens, SW900, read-out: IC50 in cell proliferation assay) was 5.84 µM and the IC50 (Homo sapiens, SW948, read-out: IC50 in cell proliferation assay) was > 31.6 µM. For the same compound, the IC50 (Homo sapiens, SW982, read-out: IC50 in cell proliferation assay) was > 31.6 µM, the IC50 (Homo sapiens, SW-620, read-out: IC50 in cell proliferation assay) was 4.75 µM and the IC50 (Homo sapiens, T98G, read-out: IC50 in cell proliferation assay) was > 31.6 µM. For the same compound, the IC50 (Homo sapiens, TCC-SUP, read-out: IC50 in cell proliferation assay) was > 31.6 µM, the IC50 (Homo sapiens, THP-1, read-out: IC50 in cell proliferation assay) was > 31.6 µM and the IC50 (Homo sapiens, U2OS, read-out: IC50 in cell proliferation assay) was 10.7 µM. For the same compound, the IC50 (Homo sapiens, U-87 MG, read-out: IC50 in cell proliferation assay) was > 31.6 µM, the IC50 (Homo sapiens, U-118-MG, read-out: IC50 in cell proliferation assay) was > 31.6 µM and the IC50 (Homo sapiens, UMUC3, read-out: IC50 in cell proliferation assay) was 24.1 µM. For the same compound, the IC50 (Hs766T, read-out: IC50 in cell proliferation assay) was > 31.6 µM, the IC50 (L-82, read-out: IC50 in cell proliferation assay) was 17.6 µM and the IC50 (Rh30, read-out: IC50 in cell proliferation assay) was 17.4 µM.
